Values of other authors in patent US20040167197A1, “Compositions, combinations, and methods for treating cardiovascular conditions and other associated conditions” (priority 2003, published 2004).

System: rat model of cardiac hypertrophy and dysfunction

COc1nccc(-c2c(-c3ccc(F)cc3)ncn2[C@H]2CC[C@H](O)CC2)n1 [trans-1-(4-hydroxycyclohexyl)-4-(4-fluorophenylmethoxypyridimidin-4-yl)imidazole]
hypertensive end-organ damage: protected against
plasma tumor necrosis factor (TNF-α): reduced
survival: improved
